Read-outs that look alike come from different tables or passages of the source.
Legend:
[1] = Pharmacokinetic study in rats after oral administration of cinobufacini capsule (UPLC-MS/MS of plasma); assay type: in vivo, rat; settings: for AUC(0-inf) / AUC(0-t) / Cmax / Tmax / CL/F / MRT last / MRT inf / half-life / Vd/F: male, Sprague-Dawley, in vivo, rat plasma, mean ± SD, n = 6; for CL/F: read-out: CLz/F (converted); for MRT last: read-out: MRT0-t; for MRT inf: read-out: MRT0-∞; for half-life: read-out: T1/2z (converted); for Vd/F: read-out: Vz/F
Procedure: Male Sprague–Dawley rats (weighing 200–220 g) of SPF grade were offered by Sippr/BK laboratory Animal, Corp., Ltd. (Shanghai, China) and fed in the Laboratory Animal Center of the Shanghai University of Traditional Chinese Medicine. All the rats were kept under environmentally controlled conditions with constant temperature (22–24°C) and humidity (60–65%). The animal experiment program in the present research was approved by the Animal Committee of the Shanghai University of Traditional Chinese Medicine (PZSHUTCM210618012).
An Agilent 1290 liquid chromatographic system includes a G4220A quaternary pump, a G1326C column incubator, a G4226A automatic sampler, and a G1330B degasser. The column temperature was set to 35°C. A measure of 5 µL of samples were separated in an Agilent SB-C18 column (2.1 mm ×50 mm, 1.8 μm) and eluted at 0.3 ml/min, followed by gradient elution with water (0.1% V/V formic acid) (A) and acetonitrile (B) (0–1 min, 20%–20% B; 1–3.5 min, 20%–80% B; 4–4.1 min, 80%-20% B; 4.1–6 min, 20% B). The total run time was 6 minutes.
An Agilent 1290 Infinity series UPLC system was combined with an Agilent 6460 series triple quadrupole mass spectrometer (Agilent Technologies, Santa Clara, CA, United States) to quantify all 13 analytes in an ESI-positive ionization mode. Quantitative analysis was performed in an MRM mode. The mass spectrum conditions were as follows: capillary voltage, 4000V; drying gas (N2), gas flow rate: 10 L/min; sprayer, 30 psi; gas temperature 350°C; The delta EMV (+) 200 V; collision gas (N2); dwell time, 25 ms. Agilent’s MassHunter Workstation software was used for data collection, peak area calculation, and quantitative analysis.
A measure of 50 µL of the plasma sample was mixed with 10 µL of the internal standard solution (345 ng/ml) in a 1.5-ml centrifuge tube and vortexed for 5 min. The samples were extracted by 500 µL of ethyl acetate for 5 min and centrifuged at 4°C for 10 min (18000 rpm). All the supernatants were collected into another 1.5-ml centrifuge tube, dried under a gentle stream of nitrogen at 37°C, and then added with 50 µL of 80% methanol for resolution. The resolution samples were centrifuged at 4°C for 10 min (18000 rpm), and 5 µL supernatant was extracted and injected for analysis.
Twenty-four male Sprague–Dawley rats (weigh 200–220 g) were divided into four groups with six rats in each group randomly, including three capsule groups at three different doses and one injection group. In the instructions for cinobufacini capsule and injection, the clinical dosage for adults is 2 g per 70 kg orally and 20 ml per 70 kg intravenously, converting to rat doses of 180 mg/kg and 1.8 ml/kg, respectively.
In the pre-experiments, we compared cinobufacini capsule of 180 mg/kg (one-time clinical dose) and 900 mg/kg (five times of clinical dose) and Cinobufacini injection of 1.8 ml/kg, but concentrations of some compounds in plasma were too low and difficult to be quantified. […] The experimental rats were led to fast the night and were free to get access to water for 12 h before the pharmacokinetic study. After administration, blood samples (approximately 150 μL) of rats were collected via retro-orbital sinus into heparinized centrifuge tubes at 0.05, 0.083, 0.25, 0.5, 0.75, 1, 2, 4, 6, 8, and 10 h. After centrifugation at 5,000 rpm for 10 min, the plasma was transferred to 1.5-ml polypropylene tubes and stored at −80°C until UPLC-MS/MS analysis.
GraphPad Prism software (version 8.0.2) was used to draw the mean plasma concentration–time curves of all analytes. The pharmacokinetic parameters were calculated by DAS 3.2.8 software. Meanwhile, the pharmacokinetic data on rats were presented as mean ± standard deviation (SD). Differences of pharmacokinetic parameters between groups were analyzed by the t-test using SPSS software (version 26.0). Differences were considered significant statistically when the p-values were <0.05 and very significant statistically when the p-values were <0.01.

[2] = Stability of analytes in rat plasma QC samples under storage conditions; assay type: physicochemical; settings: n = 6; for Stability during 24 h at 4°C, RE: post-treatment storage in autosampler; for −80°C for 30 days, RE / Three freeze–thaw cycles, RE: rat plasma; for −80°C for 30 days, RE: long-term; for Three freeze–thaw cycles, RE: −80°C to room temperature
Procedure: The stability of QC samples in six replicates at three concentrations (low, medium, and high levels) was analyzed under different storage conditions: the post-treatment stability was analyzed after storage in an autosampler (4°C) for 24 h. Freeze–thaw stability was investigated after three freeze–thaw cycles (−80°C to room temperature as one cycle). Long-term stability was assessed by analyzing QC samples kept at −80°C for 30 days. The concentrations of the analytes in the plasma samples and the QC samples were calculated by the calibration standard curve prepared each day. The stabilities of analytes were acceptable when the accuracy (RE, %) and precision (RSD, %) of all QC samples in all storage conditions were within ±15% compared to nominal concentrations.

[3] = oral cinobufacini capsule 0.9 g/kg (low)
[4] = oral cinobufacini capsule 1.8 g/kg (medium)
[5] = oral cinobufacini capsule 3.6 g/kg (high)
[6] = high QC level (249.58–250.28 ng/ml)
[7] = medium QC level (49.92–50.06 ng/ml)

| Compound | AUC(0-inf) [1, 3] [ng·h/mL] | AUC(0-t) [1, 3] [ng·h/mL] | Cmax [1, 3] [ng/mL] | Tmax [1, 3] [min] | CL/F [1, 3] [mL/min/kg] | MRT last [1, 3] [min] | MRT inf [1, 3] [min] | half-life [1, 3] [min] | Vd/F [1, 3] [L/kg] | AUC(0-inf) [1, 4] [ng·h/mL] | AUC(0-t) [1, 4] [ng·h/mL] | Cmax [1, 4] [ng/mL] | Tmax [1, 4] [min] | CL/F [1, 4] [mL/min/kg] | MRT last [1, 4] [min] | MRT inf [1, 4] [min] | half-life [1, 4] [min] | Vd/F [1, 4] [L/kg] | AUC(0-inf) [1, 5] [ng·h/mL] | AUC(0-t) [1, 5] [ng·h/mL] | further results |
| --- | --- | --- | --- | --- | --- | --- | --- | --- | --- | --- | --- | --- | --- | --- | --- | --- | --- | --- | --- | --- | --- |
| C[C@]12CC[C@H](O)C[C@H]1CC[C@@H]1[C@@H]2CC[C@]2(C)[C@@H](c3ccc(=O)oc3)[C@@H](O)[C@H]3O[C@]132 [DCG, desacetylcinobufagin] | 67 ± 15.3 | 61.7 ± 7.8 | 17.2 ± 4.77 | 49.8 ± 12 | 13 | 237 ± 43.8 | 284 ± 93.6 | 73.2 ± 48.6 | 2.8 ± 1.71 | 112 ± 14.9 | 100 ± 12.4 | 35.6 ± 2.59 | 53.4 ± 7.8 | 12 | 180 ± 37.8 | 292 ± 27.6 | 286 ± 31.2 | 5.62 ± 0.68 | 150 ± 30 | 148 ± 30.2 | Cmax [1, 5]: 56.6 ± 7.79 ng/mL; Tmax [1, 5]: 49.2 ± 7.2 min; CL/F [1, 5]: 17.2 mL/min/kg; MRT last [1, 5]: 146 ± 24.6 min; MRT inf [1, 5]: 159 ± 26.4 min; half-life [1, 5]: 125 ± 36 min; Vd/F [1, 5]: 2.79 ± 1.51 L/kg; time to reach maximum plasma concentration (Cmax) ([1]; rats, after gavage administration of cinobufacini capsule): ≤ 60 min; Stability during 24 h at 4°C, RE [2, 6]: 4.6%; Stability during 24 h at 4°C, RE ([2]; low QC level (4.99–5.00 ng/ml)): 1.5%; Stability during 24 h at 4°C, RE [2, 7]: 6.7%; −80°C for 30 days, RE [2, 6]: −3.8%; −80°C for 30 days, RE ([2]; low QC level (4.99–5.00 ng/ml)): 1.9%; −80°C for 30 days, RE [2, 7]: 3.8%; Three freeze–thaw cycles, RE [2, 6]: −2.8%; Three freeze–thaw cycles, RE ([2]; low QC level (4.99–5.00 ng/ml)): 3.0%; Three freeze–thaw cycles, RE [2, 7]: 4.9% |
| C[C@]12CC[C@H](O)C[C@@]1(O)CC[C@@H]1[C@@H]2CC[C@]2(C)[C@@H](c3ccc(=O)oc3)[C@@H](O)[C@H]3O[C@]132 [DCT, desacetylcinobufotalin] | 13.4 ± 3.76 | 13 ± 3.69 | 6.94 ± 5.35 | 52.2 ± 37.8 | 66 | 152 ± 59.4 | 177 ± 107 | 49.8 ± 15 | 5.16 ± 2.57 | 35.7 ± 12.1 | 34.2 ± 10.4 | 12.3 ± 3.11 | 36.6 ± 19.2 | 50.3 | 161 ± 52.8 | 186 ± 55.2 | 118 ± 81.6 | 8.27 ± 5.18 | 62.7 ± 16.8 | 61.2 ± 16.1 | Cmax [1, 5]: 22.2 ± 5.19 ng/mL; Tmax [1, 5]: 23.4 ± 12 min; CL/F [1, 5]: 42.5 mL/min/kg; MRT last [1, 5]: 137 ± 22.2 min; MRT inf [1, 5]: 152 ± 34.8 min; half-life [1, 5]: 91.8 ± 49.2 min; Vd/F [1, 5]: 5.59 ± 3.29 L/kg; Stability during 24 h at 4°C, RE [2, 6]: 9.6%; Stability during 24 h at 4°C, RE ([2]; low QC level (4.99–5.00 ng/ml)): 11.4%; Stability during 24 h at 4°C, RE [2, 7]: 7.3%; −80°C for 30 days, RE [2, 6]: 8.7%; −80°C for 30 days, RE ([2]; low QC level (4.99–5.00 ng/ml)): 2.4%; −80°C for 30 days, RE [2, 7]: 12.7%; Three freeze–thaw cycles, RE [2, 6]: 7.3%; Three freeze–thaw cycles, RE ([2]; low QC level (4.99–5.00 ng/ml)): 3.7%; Three freeze–thaw cycles, RE [2, 7]: 12.1% |
| C[C@]12CC[C@H](O)C[C@H]1CC[C@@H]1[C@@H]2[C@H](O)C[C@]2(C)[C@@H](c3ccc(=O)oc3)CC[C@]12O [GBL, gamabufotalin] | 13.6 ± 3.08 | 10.8 ± 2.45 | 13.3 ± 5.28 | 15 | 150 | 24.6 ± 6.6 | 38.4 ± 9.6 | 22.2 | 4.75 ± 0.98 | 23.4 ± 15 | 21.9 ± 11.6 | 21.5 ± 7.57 | 27.6 ± 13.8 | 210 | 43.8 ± 6 | 47.4 ± 13.2 | 16.8 ± 15.6 | 3.03 ± 2.02 | 54.5 ± 12.4 | 54 ± 12 | Cmax [1, 5]: 49.5 ± 10.9 ng/mL; Tmax [1, 5]: 21.6 ± 12 min; CL/F [1, 5]: 153 mL/min/kg; MRT last [1, 5]: 49.8 ± 7.2 min; MRT inf [1, 5]: 51.6 ± 8.4 min; half-life [1, 5]: 18 ± 9.6 min; Vd/F [1, 5]: 3.74 ± 1.66 L/kg; Stability during 24 h at 4°C, RE [2, 6]: 5.4%; Stability during 24 h at 4°C, RE ([2]; low QC level (4.99–5.00 ng/ml)): 12.0%; Stability during 24 h at 4°C, RE [2, 7]: 10.9%; −80°C for 30 days, RE [2, 6]: −4.9%; −80°C for 30 days, RE ([2]; low QC level (4.99–5.00 ng/ml)): 8.3%; −80°C for 30 days, RE [2, 7]: 12.4%; Three freeze–thaw cycles, RE [2, 6]: −0.6%; Three freeze–thaw cycles, RE ([2]; low QC level (4.99–5.00 ng/ml)): 13.2%; Three freeze–thaw cycles, RE [2, 7]: 10.7% |
